Experimental data reported in US7897637B2, “Methods of using flavonoids to enhance memory” (The Salk Institute for Biological Studies, priority 2006, dated 2011).
Read-outs that look alike come from different tables or passages of the source.

Key:
PC12 cells [1] = assay: PC12 cell differentiation assay (neurite outgrowth); assay type: cell-based; details: for EC50 / Emax: Rattus norvegicus, PC-12, PC12 cells in N2 medium, 24 hours, neurites scored; for EC50: read-out: EC50 (μM), induction of PC12 cell differentiation; for Emax: read-out: Maximal Efficacy, induction of PC12 cell differentiation
Description: Four trihydroxyflavones (THF) and three dihydroxyflavones (DHF) which lack one or two, respectively, of the hydroxyl groups found in fisetin were tested for their ability to induce the differentiation of PC12 cells. Differentiation was assessed by scoring neurite outgrowth (Sagara et al., J. Neurochem., 90:1144-1155, 2004). […]
PC12 cells in N2 medium were treated with flavonoids for 24 hours at which time the cells were scored for the presence of neurites. PC12 cells produce neurites much more rapidly when treated in N2 medium than when treated in regular growth medium (Kimura et al., J. Cell Biol., 116:777-83, 1992). For each treatment, 100 cells in each of three separate fields were counted. Cells were scored positive if one or more neurites>1 cell body diameter in length were observed.

HT22 cells = assay: Protection of HT22 cells from oxidative glutamate toxicity (MTT assay); assay type: cell-based, mouse; details: for EC50 / Emax: Mus musculus, 5 mM glutamate, MTT assay; for EC50: HT-22, 24 h, read-out: EC50 (μM), protection from oxidative-stress induced death; for EC50 / Emax / effect of higher levels of BSO on protection: 24 hours; for Emax: HT-22, read-out: Maximal Efficacy, protection from oxidative-stress induced death; for effect of higher levels of BSO on protection: 5 mM glutamate + 1 mM BSO, MTT
Text: Fisetin is effective at protecting nerve cells from oxidative stress-induced death (Ishige et al., Free Radic. Biol. Med., 30:433-446, 2001). This Example illustrates the structure-activity relationship between fisetin derivatives and neuroprotection in a model of oxidative glutamate toxicity using mouse HT22 cells. This pathway of programmed cell death is initiated by the addition of glutamate to the extracellular medium. Glutamate inhibits the uptake of cystine which is required for glutathione (GSH) biosynthesis, resulting in the depletion of GSH in neurons (for review see Tan et al., Curr. Top. Med. Chem., 1:497-506, 2001). Subsequently, this decrease in cellular GSH results in the production of reactive oxygen species (ROS) by mitochondria. The ROS accumulation then causes Ca^+2 influx from the extracellular medium which leads to cell death.
HT22 cells were untreated (Ct) or treated with 10 μM fisetin, 25 μM 3,3′-DHF, 25 μM 3,4′-DHF, 2.5 μM 3′,4′-DHF, 2.5 μM 3,3′,4′-THF 25 μM 3,7,3′-THF, 25 μM 3,7,4′-THF or 10 μM 7,3′,4′-THF in the presence of 5 mM glutamate±50 μM PD98059. Twenty four (24) hours later cell survival was measured by the MTT assay.
HT22 cells were untreated (Ct) or treated with 10 μM fisetin, 25 μM 3,3′-DHF. […] Protection by all of the other flavonoids was unaffected by BSO.
Cell viability was determined by a modified version of the 3-(4,5-dimethylthiazol-2-yl)-2,5-diphenyl tetrazolium bromide (MTT) assay based on the standard procedure (Hansen et al., J. Immunol. Meth., 119:203-10, 1989). Briefly, cells were seeded onto 96-well microtiter plates at a density of 5×10^3 cells per well. The next day, the medium was replaced with DMEM supplemented with 7.5% DFCS and the cells were treated with the different flavonoids alone or in the presence of 5 mM glutamate. Twenty four hours later, the medium in each well was aspirated and replaced with fresh medium containing 2.5 μg/ml MTT. After 4 hours of incubation at 37° C., cells were solubilized with 100 μl of a solution containing 50% dimethylformamide and 20% SDS (pH 4.7). The absorbance at 570 nm was measured on the following day with a microplate reader (Molecular Devices). Results obtained from the MTT assay correlated directly with the extent of cell death as confirmed visually. Controls employing wells without cells were used to determine the effects of the agents upon the assay chemistry.

[2] = Trolox Equivalent Activity Concentration (ABTS decolorization assay); details: Trolox as reference
Description: To determine if the protection seen with the different fisetin derivatives correlated with their antioxidant properties, their Trolox Equivalent Activity Concentration (TEAC) values were determined. In this procedure, a compound is compared to Trolox, a water-soluble vitamin E analog, for its ability to reduce the radical cation of ABTS in aqueous solution. As reported previously, fisetin has a TEAC value of ˜3 (Table II). None of the derivatives had TEAC values in this range despite, in some cases, showing better protection against oxidative stress-induced death. Thus, there was no correlation with antioxidant activity as defined by TEAC value and protection in this system.
TEAC values for the flavonoids were determined according to (Re et al. Free Rad. Biol. Med., 26:1231-7, 1999) but modified for a plate reader. Briefly, 250 μl of 2,2′-azinobis(3-ethylbenzothiazoline 6-sulfonate)(ABTS) treated overnight with potassium persulfate and diluted to an OD of ˜0.7 at 734 nm was added to 2.5 μl of a flavonoid solution in ethanol. The change in absorbance due to the reduction of the ABTS radical cation was measured at 734 nm for 4 minutes. To calculate the TEAC, the gradient of the plot of the percentage inhibition of absorbance vs. concentration for the flavonoid in question is divided by the gradient of the plot for Trolox.

Nrf2 and HO-1 = Nrf2 and HO-1 induction in HT22 cells (immunoblotting); assay type: cell-based, mouse; details: for increasing the levels of Nrf2 and inducing HO-1 synthesis: HT22 cells, 10-25 μM, 4 hours (Nrf2), 24 hours (HO-1)
Description: Since the ability to activate the ARE could be important for some of the beneficial effects of flavonoids such as fisetin, it was determined which, if any, of the fisetin derivatives could activate the ARE and induce the synthesis of downstream proteins such as HO-1. HT22 cells were untreated (control) or treated with 10 μM fisetin, 25 μM 3,3′DHF, 25 μM 3,4′-DHF, 10 μM 3′,4′-DHF, 10 μM 3,3′,4′-THF, 25 μM 3,7,3′-THF, 25 μM 3,7,4′-THF or 10 μM 7,3′,4′-THF for 4 hours. Nuclei were prepared and equal amounts of protein were analyzed by SDS-PAGE and immunoblotting with anti-Nrf-2 antibodies.
ERK activation is implicated in the induction of Nrf2 by certain stimuli in some cell types. To determine if ERK activation plays a role in the induction of Nrf2 and HO-1 by fisetin and its derivatives, cells were pretreated with PD98059 prior to the addition of the flavonoids to the cells. HT22 cells then were untreated (control) or treated for 24 hours with 10 μM fisetin, 25 μM 3,3′-DHF, 25 μM 3,4′-DHF, 10 μM 3′,4′-DHF, 10 μM 3,3′,4′-THF, 25 μM 3,7,3′-THF, 25 μM 3,7,4′-THF or 10 μM 7,3′,4′-THF. Cell lysates were prepared and equal amounts of cellular protein were analyzed by SDS-PAGE and immunoblotting with anti-HO-1 antibodies. Immunoblotting with anti-actin was used as a loading control.
For immunoblotting of HO-1, untreated and flavonoid-treated HT22 cells from the same density cultures as used for the cell death assays were washed twice in cold phosphate-buffered saline (PBS) then scraped into lysis buffer containing 50 mM HEPES, pH 7.4, 150 mM NaCl, 50 mM NaF, 1.5 mM MgC2, 1 mM EGTA, 10% glycerol, 1% Triton X-100, 10 mM sodium pyrophosphate, 1 mM Na3VO4, 1 mM phenylmethylsulfonyl fluoride (PMSF), 15 μg/ml aprotinin, 1 μg/ml pepstatin, and 5 μg/ml leupeptin. Lysates were incubated at 4° C. for 30 minutes, and then cleared by centrifugation at 14,000 rpm for 10 minutes. For immunoblotting of Nr12, nuclear extracts were prepared as described (Schreiber et al., Nuc. Acids Res., 17:6419, 1989) from untreated and flavonoid-treated cells. […] Protein concentrations were determined using the BCA protein assay (Pierce). Equal amounts of protein were solubilized in 2.5×SDS sample buffer, separated on 10% SDS polyacrylamide gels and transferred to nitrocellulose. The primary antibodies used were: anti-Nrf2 (#SC13032; 1/1000) from Santa Cruz Biotechnology (Santa Cruz, Calif.) and anti-HO-1 (#SPA-896; 1/5000) from Stressgen (Victoria, BC Canada).

GSH = assay: Total cellular GSH levels in HT22 cells; assay type: cell-based, mouse; details: 8 hours
Description: The effects of fisetin derivatives on cellular GSH levels was then determined. HT22 cells were untreated (Ct) or treated with 10 μM fisetin, 25 μM 3,3′-DHF, 25 μM 3,4′-DHF, 2.5 μM 3′,4′-DHF, 2.5 μM 3,3′,4′-THF, 25 μM 3,7,3′-THF, 25 μM 3,7,4′-THF or 10 μM 7,3′,4′-THF alone or in the presence of 5 mM glutamate. After 8 hours cellular levels of total GSH were determined as described in Example 4. The GSH level of the control sample (31.5±10 nmoles/mg protein) was taken as 100%.
Total intracellular GSH/GSSG was determined using whole cell lysates from untreated, glutamate treated, flavonoid treated and glutamate plus flavonoid treated cells as described (Maher and Hanneken, Invest. Opthalmol. Vis. Sci., 46:749-57, 2005, herein incorporated by reference as to the method) and normalized to total cellular protein.

PC12 cells [3] = details: cited from earlier work; for EC50: PC12 cells, read-out: EC50 for differentiation; for EC50 / differentiation of the cells induced at best: Sagara et al. 2004
ERK2 (p42) = ERK2 (p42) phosphorylation in hippocampal slices (immunoblotting, densitometry); assay type: cell-based, rat; details: inhibitor alone (50 μM PD98059 or 10 μM U0126, 30 minutes)
Description: (§1) Western blots panels A and B) of hippocampal slices treated with (A) 1 μM fisetin or (B) pretreated for 30 minutes with either 50 μM PD98059 (PD) or 10 μM U0126 (U) before the addition of 1 μM fisetin for 5 minutes, which blots were probed with the indicated antibodies.
(§2) Hippocampal slices in artificial cerebral spinal fluid (ACSF) were treated with either 1 μM fisetin for 5-20 minutes or pretreated for 30 minutes with either 50 μM PD98059 (PD) or 10 μM U0126 (J) before the addition of 1 μM fisetin for 5 minutes. Equal amounts of protein were analyzed by SDS-PAGE and immunoblotting with antibodies to phospho-ERK and phospho-CRFB along with antibodies to the unphosphorylated forms of the proteins. The average phosphoprotein signal from the blots was quantified by densitometry and normalized to total protein was plotted±S.D.

ERK1 (p44) = ERK1 (p44) phosphorylation in hippocampal slices (immunoblotting, densitometry); assay type: cell-based, rat; details: inhibitor alone (50 μM PD98059 or 10 μM U0126, 30 minutes)
Description: as §1, §2

CREB = CREB phosphorylation in hippocampal slices (immunoblotting, densitometry); assay type: cell-based, rat; details: inhibitor alone (50 μM PD98059 or 10 μM U0126, 30 minutes)
Description: as §1, §2

Row | Structure (SMILES) | EC50 (PC12 cells [1]) [µM] | Emax (PC12 cells [1]) [%] | EC50 (HT22 cells; HT22 cells) [µM] | Emax (HT22 cells; HT22 cells) [%] | TEAC [2] | EC50 (PC12 cells [3]) [µM] | differentiation of the cells induced at best (PC12 cells [3]) [%] | further results
1 | O=c1c(O)c(-c2cccc(O)c2)oc2ccccc12 [3,3′-DHF, 3,3′-dihydroxyflavone] | 10 | 40 to 50 | 12 | > 80 | 1.01 ± 0.01 | – | – | –
2 | O=c1c(O)c(-c2ccc(O)cc2)oc2ccccc12 [3,4′-DHF, 3,4′-dihydroxyflavone] | 20 | 50 to 60 | 10 | > 70 | 0.62 ± 0.06 | – | – | ability to induce differentiation (PC12 cells [1]; PC12 cells): slightly less efficacious and potent than fisetin; effect of higher levels of BSO on protection (HT22 cells): reduced protection; increasing the levels of Nrf2 and inducing HO-1 synthesis (Nrf2 and HO-1): fairly effective
3 | O=c1c(O)c(-c2cccc(O)c2)oc2cc(O)ccc12 [3,7,3′-THF, 3,3′,7-trihydroxyflavone] | 15 | 40 to 50 | 17 | > 90 | 1.55 ± 0.34 | – | – | –
4 | O=c1c(O)c(-c2ccc(O)cc2)oc2cc(O)ccc12 [3,7,4′-THF, 3,4′,7-trihydroxyflavone] | 10 | 70 to 80 | 12.5 | > 90 | 1.01 ± 0.10 | – | – | increasing the levels of Nrf2 and inducing HO-1 synthesis (Nrf2 and HO-1): fairly effective; effect of inhibition of ERK activation (PD98059) on Nrf2 and HO-1 induction (Nrf2 and HO-1; PD98059 pretreatment): reduced
5 | O=c1cc(-c2ccc(O)c(O)c2)oc2cc(O)ccc12 [7,3′,4′-THF, 3′,4′,7-trihydroxyflavone] | 10 | 50 to 60 | 5 | > 80 | 0.89 ± 0.04 | – | – | effect of higher levels of BSO on protection (HT22 cells): reduced protection; protection from oxidative stress-induced death (HT22 cells; HT22 cells, glutamate): equal to or more effective than fisetin; GSH levels in the presence of oxidative stress (GSH; 5 mM glutamate): could not maintain GSH levels; basal levels of GSH (GSH; flavonoid alone): raised the basal levels of GSH
6 | O=c1cc(-c2ccc(O)c(O)c2)oc2cc(O)cc(O)c12 [Iuteolin, 5,7,3′,4′-tetrahydroxyflavone] | – | – | – | – | – | 10 | 50 | –
7 | N#CC(=C(/N)Sc1ccccc1N)/C(C#N)=C(\N)Sc1ccccc1N [U0126, reference compound] | – | – | – | – | – | – | – | p42 phosphoprotein signal normalized to total protein (ERK2 (p42)): 0.30±0.05; p44 phosphoprotein signal normalized to total protein (ERK1 (p44)): 0.13±0.06; CREB phosphoprotein signal normalized to total protein (CREB): 0.71±0.31
8 | COc1cc(-c2oc3cc(O)cc(O)c3c(=O)c2O)ccc1O [isorhamnetin, 3′-methoxy-3,5,7,4′-tetrahydroxyflavone] | – | – | – | – | – | 10 | 50 | –
9 | O=c1c(O)c(-c2cc(O)c(O)c(O)c2)oc2cc(O)cc(O)c12 [myricetin] | – | – | – | – | – | – | – | differentiation promoting activity (PC12 cells [3]; earlier flavonoid comparison): completely ineffective
10 | O=c1c(O)c(-c2ccc(O)c(O)c2)oc2cc(O)cc(O)c12 [quercetin, 3,5,7,3′,4′-pentahydroxyflavone] | – | – | – | – | – | 10 | 50 | –
